Experimental data taken from BindingDB's records for doi:10.1016/s0960-894x(02)00329-3 (Sankyo, 2002).

Target: Neuraminidase (Influenza A virus (strain A/Puerto Rico/8/1934 H1N1), UniProt P03468)
Assay: Inhibition of influenza A sialidase in vitro.

Neuraminidase, sequence (P03468 whole entry): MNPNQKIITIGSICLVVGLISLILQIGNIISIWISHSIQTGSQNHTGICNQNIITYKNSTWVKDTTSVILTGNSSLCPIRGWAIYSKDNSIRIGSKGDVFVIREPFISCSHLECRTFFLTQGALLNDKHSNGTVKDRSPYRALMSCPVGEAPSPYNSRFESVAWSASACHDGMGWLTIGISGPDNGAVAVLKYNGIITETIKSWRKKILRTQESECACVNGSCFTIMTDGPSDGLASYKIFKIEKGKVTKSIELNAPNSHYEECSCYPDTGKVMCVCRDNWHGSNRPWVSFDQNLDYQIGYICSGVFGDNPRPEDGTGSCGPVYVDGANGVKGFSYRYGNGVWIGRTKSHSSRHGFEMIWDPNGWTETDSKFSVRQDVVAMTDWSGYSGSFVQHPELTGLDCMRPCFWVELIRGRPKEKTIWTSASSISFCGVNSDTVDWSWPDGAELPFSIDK

| Structure (SMILES) | IC50 |
| --- | --- |
| [C][C][C][C][C]O[C@H]([C][C])[C@@H]1OC(C([O])=O)=[C][C@H](N=C([N])[N])[C@H]1[N]C([C])=O | 0.0188 µM |
| [C]C(=O)[N][C][C]O[C@@H]([C@@H]1OC(C([O])=O)=[C][C@H](N=C([N])[N])[C@H]1[N]C([C])=O)[C@H]([O])[C][O] | 0.0184 µM |
